This is an account of results in patent publication US20240262835A1, “PRMT5 INHIBITING COMPOUNDS AND USES THEREOF” (ANTENGENE DISCOVERY LIMITED, priority 2023, published 2024).

By CLint scaled is commonly meant a measure of how fast metabolising enzymes remove a compound, apart from limits set by blood flow. Broadly, the half-life is the time in which the quantity being followed falls by half. In general, microsomal CLint refers to a measure of how fast metabolising enzymes remove a compound, apart from limits set by blood flow.

A short description of data set [1]: Hepatic metabolic stability (HMS) assay, rat hepatocytes. Particulars: rat, cryopreserved hepatocytes.
Experimental: 1) 10 mM test compounds were provided.
(§1) 2) 30 mM positive control stock solutions: Dissolved accurate amount of positive control compounds in dimethyl sulfoxide (DMSO).
(§2) 3) 1000× Stock Solution: Diluted 10 mM test compounds and 30 mM positive control compounds to 1 mM and 3 mM with DMSO in 96-well plates.
(§3) 4) 100× Dosing Solution: Diluted 1 mM test compounds and 3 mM positive control compounds to 100 μM and 300 μM dosing solutions with ACN.
(§4) 5) Preparation of 0.5×10^6/mL cells suspension: cryopreserved cells were thawed, isolated and suspended in Incubation Medium, then diluted with pre-warmed Incubation Medium to 0.5×10^6 cells/mL.
(§5) 6) Add 198 μL of pre-warmed cell suspensions in 96-well plates.
(§6) 7) Preparation of Quenching Plate: Transfer 125 μL of stop solution in a set of pre-labeled 96-well plates.
(§7) 8) Spike 2 μL dosing solution to each well of 96-well plates in duplicate.
(§8) 9) For TO Samples, mix to achieve a homogenous suspension for about 1 min, then immediately transfer 25 μL of each sample into well containing 125 μL of ice-cold stop solution followed by mixing.
(§9) 10) Incubate all plates at 37° C. in a 95% humidified incubator at 5% CO2 to start the reactions with constant shaking.
(§10) 11) At 15, 30, 60 and 90 min, mix samples and then transfer 25 μL of each sample at each time point to well containing 125 μL of ice-cold stop solution followed by mixing.
(§11) 12) Medium Control (MC) sample plates (labeled as TO-MC and T90-MC) are prepared in the same way as cell incubation except that medium was used instead of cell suspension.
(§12) 13) At each corresponding time point, stop the reactions by removing the plates from incubator and mixing with 125 μL of ice-cold stop solution.
(§13) 14) Vortex the plates immediately on a plate shaker at 600 rpm for 10 minutes. Then, centrifuge all sample plates at 3220×g for 20 min at 4° C.
(§14) 15) After centrifugation, 80 μL/well of supernatant in the sample plates are transferred to another set of pre-labeled 96-well plates which containing 240 μL of ultra pure water according to the plate map.
(§15) 16) Analytical plates are sealed and store at 4° C. until LC-MS/MS analysis.
(§16) The remaining percents of test articles after incubation were calculated by the follow equations:
(§17) Use the following equation of first order kinetics to calculate T1/2 and CLint:
In data set [2] the test system is cryopreserved hepatocytes. Described as above. Particulars: rat, hepatocytes.
Experimental: 1) 10 mM test compounds were provided.
as §1, §2, §3, §4, §5, §6, §7, §8, §9, §10, §11, §12, §13, §14, §15, §16, §17
A short description of data set [3]: Hepatic metabolic stability (HMS) assay, dog hepatocytes. The settings on record: dog, cryopreserved hepatocytes.
Experimental: 1) 10 mM test compounds were provided.
as §1, §2, §3, §4, §5, §6, §7, §8, §9, §10, §11, §12, §13, §14, §15, §16, §17
Data set [4] deals with cryopreserved hepatocytes. Described as above. Particulars: dog, hepatocytes.
Experimental: 1) 10 mM test compounds were provided.
as §1, §2, §3, §4, §5, §6, §7, §8, §9, §10, §11, §12, §13, §14, §15, §16, §17
Data set [5] in a line: Hepatic metabolic stability (HMS) assay, human hepatocytes. Particulars: human, cryopreserved hepatocytes.
Experimental: 1) 10 mM test compounds were provided.
as §1, §2, §3, §4, §5, §6, §7, §8, §9, §10, §11, §12, §13, §14, §15, §16, §17
Data set [6] relates to cryopreserved hepatocytes. The data set is described as above. The settings on record: human, hepatocytes.
Experimental: 1) 10 mM test compounds were provided.
as §1, §2, §3, §4, §5, §6, §7, §8, §9, §10, §11, §12, §13, §14, §15, §16, §17
A short description of data set [7]: Hepatic metabolic stability (HMS) assay, mouse hepatocytes. The settings on record: mouse, cryopreserved hepatocytes.
Experimental: 1) 10 mM test compounds were provided.
as §1, §2, §3, §4, §5, §6, §7, §8, §9, §10, §11, §12, §13, §14, §15, §16, §17
Data set [8] concerns cryopreserved hepatocytes. The description is as above. The settings on record: mouse, hepatocytes.
Experimental: 1) 10 mM test compounds were provided.
as §1, §2, §3, §4, §5, §6, §7, §8, §9, §10, §11, §12, §13, §14, §15, §16, §17
Data set [9] in a line: Hepatic metabolic stability (HMS) assay, cynomolgus monkey hepatocytes. Particulars: cynomolgus monkey, cryopreserved hepatocytes.
Experimental: 1) 10 mM test compounds were provided.
as §1, §2, §3, §4, §5, §6, §7, §8, §9, §10, §11, §12, §13, §14, §15, §16, §17
Data set [10] deals with cryopreserved hepatocytes. Described as above. The settings on record: cynomolgus monkey, hepatocytes.
Experimental: 1) 10 mM test compounds were provided.
as §1, §2, §3, §4, §5, §6, §7, §8, §9, §10, §11, §12, §13, §14, §15, §16, §17
For data set [11] the following is noted: rat liver microsome, scaled to liver.
A short description of data set [12]: in vitro. The settings on record: rat, microsomes.
The nature of data set [13]: Liver microsome metabolic stability (LMS) assay, dog. The settings on record: dog, microsomes. (In general: Liver microsomes are a subcellular fraction often used to study metabolism.)
Data set [14] can be described thus: Liver microsome metabolic stability (LMS) assay, human.
A short description of data set [15]: Liver microsome metabolic stability (LMS) assay, cynomolgus monkey.
Data set [16] concerns cryopreserved hepatocytes. Particulars: human.
Experimental: 1) 10 mM test compounds were provided.
as §1, §2, §3, §4, §5, §6, §7, §8, §9, §10, §11, §12, §13, §14, §15, §16, §17
Data set [17] has as its system cryopreserved hepatocytes. Particulars: rat.
Experimental: 1) 10 mM test compounds were provided.
as §1, §2, §3, §4, §5, §6, §7, §8, §9, §10, §11, §12, §13, §14, §15, §16, §17
Data set [18] deals with cryopreserved hepatocytes. Particulars: mouse.
Experimental: 1) 10 mM test compounds were provided.
as §1, §2, §3, §4, §5, §6, §7, §8, §9, §10, §11, §12, §13, §14, §15, §16, §17
Data set [19] deals with cryopreserved hepatocytes. The settings on record: dog.
Experimental: 1) 10 mM test compounds were provided.
as §1, §2, §3, §4, §5, §6, §7, §8, §9, §10, §11, §12, §13, §14, §15, §16, §17
In data set [20] the test system is cryopreserved hepatocytes. Particulars: cynomolgus monkey.
Experimental: 1) 10 mM test compounds were provided.
as §1, §2, §3, §4, §5, §6, §7, §8, §9, §10, §11, §12, §13, §14, §15, §16, §17
Data set [21] is described as follows: in vitro. Particulars: human, hepatocytes.
Experimental: 1) 10 mM test compounds were provided.
as §1, §2, §3, §4, §5, §6, §7, §8, §9, §10, §11, §12, §13, §14, §15, §16, §17
The nature of data set [22]: in vitro. The settings on record: rat, hepatocytes.
Experimental: 1) 10 mM test compounds were provided.
as §1, §2, §3, §4, §5, §6, §7, §8, §9, §10, §11, §12, §13, §14, §15, §16, §17
Data set [23] in a line: in vitro. Particulars: mouse, hepatocytes.
Experimental: 1) 10 mM test compounds were provided.
as §1, §2, §3, §4, §5, §6, §7, §8, §9, §10, §11, §12, §13, §14, §15, §16, §17
A short description of data set [24]: in vitro. Particulars: dog, hepatocytes.
Experimental: 1) 10 mM test compounds were provided.
as §1, §2, §3, §4, §5, §6, §7, §8, §9, §10, §11, §12, §13, §14, §15, §16, §17
Data set [25] in a line: in vitro. Particulars: cynomolgus monkey, hepatocytes.
Experimental: 1) 10 mM test compounds were provided.
as §1, §2, §3, §4, §5, §6, §7, §8, §9, §10, §11, §12, §13, §14, §15, §16, §17

Read-outs that look alike come from different tables or passages of the source.

`O=c1ccc2ccc(O)cc2o1` [Ref. 2, 7-Hydroxycoumarin, reference compound]: the CLint scaled at 3 μM came to 3170 mL/min/kg in data set [1]; 3270 mL/min/kg in data set [3]; 1020 mL/min/kg in data set [5]; 7220 mL/min/kg in [7]; 2360 mL/min/kg in data set [9]. Besides, the half-life at 3 μM was determined as 2 min in data set [1]; 2.9 min in data set [3]; 3 min in data set [5]; 2.3 min in data set [7]; 2.1 min in [9]. Also, the “CLint (hep) R” value in data set [2] was determined as 678.0 μL/min/10^6. The “CLint (hep) D” value in data set [4] turned out to be 475.1 μL/min/10^6. Besides, the “CLint (hep) H” value in [6] stood at 367.6 μL/min/10^6. Also, in data set [8], the “CLint (hep) M” value worked out at 608.1 μL/min/10^6. Besides, the “CLint (hep) C” value in [10] is 655.8 μL/min/10^6.
As to `C[C@]12CC[C@H]3[C@@H](CCC4=CC(=O)CC[C@@]43C)[C@@H]1CC[C@@H]2O` [Ref. 4, Testosterone, reference compound], in [11], the “CLint (liver) R” value is 3782.4 mL/min/kg. The compound also gave a half-life in the data set “in vitro [12]” of 0.7 min. For the same compound, the CLint scaled at 1 μM in [13] came out at 58.7 mL/min/kg; in [15] (cynomolgus monkey, microsomes), 206 mL/min/kg. For the same compound, the half-life at 1 μM was determined as 34 min in data set [13]; 17.6 min in data set [14] (human, microsomes); 9.1 min in data set [15] (cynomolgus monkey, microsomes). In data set [13], this compound yielded a microsomal CLint at 1 μM of 40.8 µL/min/mg. In addition, the “CLint (mic) H” value in [14] (human liver microsome) is 79.0 µL/min/mg. Also, in data set [15] (cynomolgus monkey liver microsome), the “CLint (mic) C” value is 152.3 µL/min/mg.
As for `CCOc1ccc2ccc(=O)oc2c1` [Ref. 1, 7-Ethoxycoumarin], the “CLint (hep) H” value in [16] amounted to 72.1 μL/min/10^6. Moreover, the “CLint (hep) R” value in data set [17] was found to be 39.2 μL/min/10^6. Moreover, in data set [18], the “CLint (hep) M” value is 647.9 μL/min/10^6. Also, the “CLint (hep) D” value in [19] stood at 521.1 μL/min/10^6. The “CLint (hep) C” value in [20] is 154.0 μL/min/10^6. In addition, the CLint scaled at 3 μM in “in vitro [21]” is 201 mL/min/kg; in the data set “in vitro [22]”, 184 mL/min/kg; in “in vitro [23]”, 7700 mL/min/kg; in “in vitro [24]”, 3580 mL/min/kg; in “in vitro [25]”, 554 mL/min/kg. Besides, the half-life at 3 μM is 19.2 min in the data set “in vitro [21]”, 35.3 min in the data set “in vitro [22]”, 2.1 min in “in vitro [23]” and 9 min in the data set “in vitro [25]”.
